Laboratory results taken from ChEMBL document CHEMBL1201862, “PubChem BioAssay data set” (2004).
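A five-concentration, 48-hour dose response in 96-well plates underlies each endpoint, interpolated linearly between surrounding concentrations. The concentration for 50% growth inhibition is given as GI50.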 Calls of active or inactive are those of the source. Rule as the data show it: active = GI50 up to about 1.1 µM and inactive = higher.

Tests used:
Experiment in all cases: NCI tumour cell line growth inhibition, 48 h
HOP-18 = tested on: HOP-18
DMS-114 = tested on: DMS-114
RXF 631 = tested on: RXF 631
XF498 = tested on: XF498
DMS-273 = tested on: DMS-273
KM-20L2 = tested on: KM-20L2
Hs-578T = tested on: Hs-578T
MDA-N = tested on: MDA-N
T47D = tested on: T47D

Fc1ccc2c(c1)SC1Oc3ccccc3-c3c1c-2nn3-c1ccccc1 (stereo not drawn)
GI50 (HOP-18): 27 µM (inactive) | GI50 (DMS-114): > 100 µM (inactive) | GI50 (RXF 631): 7.69 µM (inactive) | GI50 (XF498): > 100 µM (inactive) | GI50 (DMS-273): > 100 µM (inactive) | GI50 (KM-20L2): > 100 µM (inactive)

O=C(CC1(O)C(=O)Nc2ccc(Br)cc21)c1ccc(Cl)cc1Cl (stereo not drawn)
GI50 (DMS-114): 20.9 µM (inactive) | GI50 (RXF 631): 43.9 µM (inactive) | GI50 (KM-20L2): > 100 µM (inactive)

Cc1ccc(S(=O)(=O)c2ccccc2[N+](=O)[O-])cc1
GI50 (DMS-114): 44.6 µM (inactive) | GI50 (RXF 631): 49.1 µM (inactive) | GI50 (XF498): > 100 µM (inactive) | GI50 (DMS-273): > 100 µM (inactive) | GI50 (KM-20L2): > 100 µM (inactive)

CNS(=O)(=O)NN(C)S(=O)(=O)c1ccc2ccccc2c1
GI50 (DMS-114): > 100 µM (inactive) | GI50 (RXF 631): > 100 µM (inactive) | GI50 (DMS-273): > 100 µM (inactive) | GI50 (KM-20L2): > 100 µM (inactive)

COc1c(Sc2ccccc2)cc(Sc2ccccc2)c2cccnc12
GI50 (HOP-18): 0.0263 µM (active) | GI50 (DMS-114): 24.1 µM (inactive) | GI50 (RXF 631): 27.9 µM (inactive) | GI50 (XF498): 17.7 µM (inactive) | GI50 (DMS-273): 20 µM (inactive) | GI50 (KM-20L2): 21.2 µM (inactive)

O=C1C(Nc2ccc(S(=O)(=O)Nc3cnc4ccccc4n3)cc2)=C/C(=N\c2ccc(S(=O)(=O)Nc3cnc4ccccc4n3)cc2)c2ccccc21
GI50 (HOP-18): 13.7 µM (inactive) | GI50 (DMS-114): 21.2 µM (inactive) | GI50 (Hs-578T): 37.2 µM (inactive) | GI50 (XF498): 25.5 µM (inactive) | GI50 (MDA-N): 18.8 µM (inactive) | GI50 (DMS-273): 12 µM (inactive) | GI50 (KM-20L2): 17.7 µM (inactive)

COc1ccc(CN2CC(C)(C)C2=O)c(OC)c1
GI50 (HOP-18): > 100 µM (inactive) | GI50 (DMS-114): > 100 µM (inactive) | GI50 (RXF 631): > 100 µM (inactive) | GI50 (XF498): > 100 µM (inactive) | GI50 (DMS-273): > 100 µM (inactive) | GI50 (KM-20L2): > 100 µM (inactive)

O=C(CC(=O)C1CCOC1=O)C(=O)Nc1ccc(Cl)cc1 (stereo not drawn)
GI50 (DMS-114): > 100 µM (inactive) | GI50 (RXF 631): > 100 µM (inactive) | GI50 (DMS-273): > 100 µM (inactive) | GI50 (KM-20L2): > 100 µM (inactive)

CN(C)CC/[N+]([O-])=C(/c1ccccc1)C12CC3CC(CC(C3)C1)C2
GI50 (HOP-18): 20.9 µM (inactive) | GI50 (DMS-114): 20.2 µM (inactive) | GI50 (RXF 631): 14 µM (inactive) | GI50 (XF498): 13.2 µM (inactive) | GI50 (KM-20L2): 11.5 µM (inactive)

COc1ccc2cc3nc(O)cc(O)c3cc2c1OC
GI50 (HOP-18): > 100 µM (inactive) | GI50 (DMS-114): > 100 µM (inactive) | GI50 (RXF 631): > 100 µM (inactive) | GI50 (XF498): > 100 µM (inactive) | GI50 (KM-20L2): > 100 µM (inactive)

COc1ccc(C2=NNC(=O)OC2c2ccccc2)cc1 (stereo not drawn)
GI50 (HOP-18): 57.9 µM (inactive) | GI50 (DMS-114): 71.8 µM (inactive) | GI50 (RXF 631): > 100 µM (inactive) | GI50 (XF498): 74 µM (inactive) | GI50 (KM-20L2): 41.2 µM (inactive)

Nc1ccc(C(=O)/C=C/c2ccccc2O)cc1
GI50 (RXF 631): > 100 µM (inactive) | GI50 (XF498): > 100 µM (inactive) | GI50 (DMS-273): > 10 µM (inactive) | GI50 (KM-20L2): > 100 µM (inactive)

COc1ccccc1C(=O)N(Cc1ccccc1)c1ccc(Cl)c(C(=O)OC(C)C)c1
GI50 (HOP-18): 14 µM (inactive) | GI50 (DMS-114): 12.6 µM (inactive) | GI50 (RXF 631): 17 µM (inactive) | GI50 (Hs-578T): 61.1 µM (inactive) | GI50 (XF498): 14.2 µM (inactive) | GI50 (MDA-N): 38.2 µM (inactive) | GI50 (DMS-273): 5.98 µM (inactive) | GI50 (KM-20L2): 30.3 µM (inactive) | GI50 (T47D): 5.52 µM (inactive)

CCOc1ccc(NC(=O)CC2SC(Nc3ccc(C)cc3)=NC2=O)cc1 (stereo not drawn)
GI50 (DMS-114): > 100 µM (inactive) | GI50 (RXF 631): > 100 µM (inactive) | GI50 (XF498): > 100 µM (inactive) | GI50 (DMS-273): > 100 µM (inactive) | GI50 (KM-20L2): > 100 µM (inactive)

Nc1ncnc2c1N=CN(Oc1ccccc1)N2
GI50 (DMS-114): > 100 µM (inactive) | GI50 (RXF 631): > 100 µM (inactive) | GI50 (XF498): > 100 µM (inactive) | GI50 (DMS-273): > 100 µM (inactive) | GI50 (KM-20L2): > 100 µM (inactive)

O=C1OC(O)C(Oc2ccc(Cl)cc2)=C1Cl (stereo not drawn)
GI50 (DMS-114): 39.1 µM (inactive) | GI50 (RXF 631): > 100 µM (inactive) | GI50 (DMS-273): > 100 µM (inactive) | GI50 (KM-20L2): > 100 µM (inactive)

CCOC(=O)c1cn2c([nH]c3ccccc32)c(C#N)c1=O
GI50 (HOP-18): > 100 µM (inactive) | GI50 (RXF 631): > 100 µM (inactive) | GI50 (XF498): > 100 µM (inactive) | GI50 (DMS-273): > 100 µM (inactive) | GI50 (KM-20L2): > 100 µM (inactive)

[O-][n+]1c(-c2ccccc2)c2nc3ccccc3nc2c2ccccc21
GI50 (DMS-114): > 100 µM (inactive) | GI50 (RXF 631): > 100 µM (inactive) | GI50 (XF498): > 100 µM (inactive) | GI50 (DMS-273): > 100 µM (inactive) | GI50 (KM-20L2): > 100 µM (inactive)
